Here are results for two molecules from US8623593B1, “GPR 17 agonists and screening assay” (Rheinische Friedrich-Wilhelms-Universität Bonn, priority 2011, dated 2014).

For series [1], the target named is T1, GPR17 (Homo sapiens, UniProt Q13304). Put plainly: inhibition of forskolin-stimulated cAMP production in CHO-GPR17 cells. Set-up: expressed in transfected cells; host or cells: Flp-In T-REx CHO cells, expression induced with doxycycline. Particulars: for activation of GPR17: comparison with RA-II-150, FIG. 2. Format: cell-based. The text has this:
Two signal transduction pathways that influence the activity of the adenylyl cyclase in oppositional ways can be activated upon receptor activation. Whereas the Gs pathway stimulates the adenylyl cyclase-dependent catalysation of cAMP formation, the Gi pathway inhibits it. The detection of cAMP accumulation is based on the HTRF® technology described above. In this case a monoclonal antibody specific to cAMP was the donor fluorophore while the acceptor fluorophore d2 was fused to cAMP. The analysis of the Gi pathway was based on the direct activation of the adenylyl cyclase, for example, by forskolin. Upon activation, the Gi pathway inhibits the forskolin-dependent activation of the adenylyl cyclase, leading to decreased cAMP accumulation. The inhibition of forskolin-stimulated cAMP accumulation in 1321N1 or CHO cells was performed using the HTRF® cAMP dynamic kit (Cisbio Bioassays, BP 84175, France). Cells were resuspended in assay buffer with 1 mM 3-isobutyl-1-methylxanthine (IBMX) supplemented and dispensed in 384-well microplates at a density of 50,000 cells/well in a volume of 5 μl. After preincubation in assay buffer for 30 min, the cells were stimulated by adding 5 μl of agonist in the respective concentration of forskolin. The final concentration of forskolin was dependent on the cell line which was employed in the assay. Adenylyl cyclase was stimulated with 1 μM forskolin in 1321N1-GPR17 cells and with 10 μM forskolin in CHO-GPR17 cells, followed by incubation for 30 min at room temperature. The reaction was terminated by lysis of the cells, which results from the addition of 5 μl of d2-conjugate followed by the addition of 5 μl of […] (both supplements are diluted in conjugate and lysis buffer). The assay was incubated for 60 min at room temperature and time-resolved FRET signals were measured at an excitation wavelength of 320 nm using the Mithras LB 940 multimode reader (Berthold technologies, D-75323 Bad Wildbad). The evaluation of HTRFR data was performed following the instructions of the kit manufacturer. Data analysis was based on the fluorescence ratio emitted by labeled cAMP (665 nm) over the light emitted by the europium cryptate-labelled anti-cAMP (620 nm). Levels of cAMP were normalised to the amount of cAMP elevated by 10 μM or 1 μM forskolin alone.
A general note: Cyclic AMP is a second messenger, typically raised through Gs and lowered through Gi signalling.
Target sequence in this assay (Q13304 29-367): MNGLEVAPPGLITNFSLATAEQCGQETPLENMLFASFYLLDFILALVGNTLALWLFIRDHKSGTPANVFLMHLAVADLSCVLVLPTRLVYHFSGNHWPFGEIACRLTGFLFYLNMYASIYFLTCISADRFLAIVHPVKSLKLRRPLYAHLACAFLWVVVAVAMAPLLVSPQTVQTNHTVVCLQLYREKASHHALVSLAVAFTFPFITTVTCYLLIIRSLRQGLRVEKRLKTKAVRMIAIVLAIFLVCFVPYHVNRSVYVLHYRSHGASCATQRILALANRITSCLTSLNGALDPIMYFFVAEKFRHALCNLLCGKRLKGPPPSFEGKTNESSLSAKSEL

Series [2] addresses T1, GPR17. The note with it: reported in WO 2005/103291; cited from earlier work.
Target sequence in this assay (Q13304 whole entry, species assumed, the tested form may be a part): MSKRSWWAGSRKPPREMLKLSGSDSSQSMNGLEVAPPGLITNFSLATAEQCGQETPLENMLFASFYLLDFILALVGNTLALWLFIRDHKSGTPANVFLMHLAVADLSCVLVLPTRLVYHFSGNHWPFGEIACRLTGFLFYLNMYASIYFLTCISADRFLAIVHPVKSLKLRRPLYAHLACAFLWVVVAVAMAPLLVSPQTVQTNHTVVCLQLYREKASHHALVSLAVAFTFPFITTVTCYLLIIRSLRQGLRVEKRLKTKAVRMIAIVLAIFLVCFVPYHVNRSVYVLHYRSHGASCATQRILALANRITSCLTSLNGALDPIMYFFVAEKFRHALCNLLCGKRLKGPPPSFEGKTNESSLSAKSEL
The conditions of series [3]: exposure to air and light; cited from earlier work.

As to `NCC(=O)CCC(=O)O` [5-ALA, 5 amino levulinic acid], in series [1] (FIG. 2, forskolin-stimulated cAMP production), the “less potent as compared with RA-II-150” value was found to be 10.000 fold. In series [1] (GPR17 CHO cells, after 5-ALA addition), the “inhibition of forskolin stimulated adenylylcyclase activity” value is on record as “GPR17-independent inhibition”. The “activation of GPR17” value in series [1] was “confirm the activation”. Also, the “amounts needed in the assays” value in series [2] is given as “three digit micromolar range”.
As for `NCc1[nH]cc(CCC(=O)O)c1CC(=O)O` [PBG, porphobilinogen], in series [3], the chemical stability result is “rapidly decomposes after exposure to air and light”. For the same molecule, in series [1], the “activation of GPR17” value is recorded as “failed”. Besides, in series [2], the “amounts needed in the assays” value was “mM range”.
